In patent publication US20260209234A1, “SUBSTITUTED DIHYDROPYRROLO[3,4-D]PYRIMIDINE COMPOUNDS AND THEIR USE IN TREATING MEDICAL CONDITIONS” (Karuna Therapeutics, Inc., priority 2022, published 2026):

Tests used:
[1] = molecular target: T1, rM4 receptors (Rattus norvegicus, UniProt P08485); experiment: Rat M4 PAM pERK assay; format: cell-based; settings: CHO cells expressing rM4; EC20 of acetylcholine (10 nM final); TR-FRET
T1 construct: expressed in transfected cells; host or cells: CHO cells
T1 sequence (P08485 1-478): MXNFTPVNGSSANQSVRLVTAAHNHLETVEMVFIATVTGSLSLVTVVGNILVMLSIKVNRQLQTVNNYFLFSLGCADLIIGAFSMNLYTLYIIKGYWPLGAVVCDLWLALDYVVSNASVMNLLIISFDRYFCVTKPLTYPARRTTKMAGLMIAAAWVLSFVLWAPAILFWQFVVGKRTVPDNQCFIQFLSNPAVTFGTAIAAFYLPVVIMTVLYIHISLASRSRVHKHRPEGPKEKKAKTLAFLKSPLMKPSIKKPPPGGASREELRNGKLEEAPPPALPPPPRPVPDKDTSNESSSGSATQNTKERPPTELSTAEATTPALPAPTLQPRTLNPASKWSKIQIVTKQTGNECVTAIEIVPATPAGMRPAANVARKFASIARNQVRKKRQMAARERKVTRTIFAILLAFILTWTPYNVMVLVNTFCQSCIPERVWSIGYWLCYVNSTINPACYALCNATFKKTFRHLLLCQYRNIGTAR
Method: (§1) Chinese hamster ovary (CHO) cells expressing either hM4 or rM4 receptors were frozen in assay ready vials (5×10^6 cells/vial) after bulking-up in culture. The day before an assay, vial(s) were thawed and cells seeded in 384 well white proxiplates at 1000/well for hM4 cells and at 2000/well for rM4 cells, in 10 μL of growth media (Hams/F12 with glutamax and 10% FCS) and incubated overnight at 37° C./5% CO2.
(§2) On the following morning, the growth media was removed by ‘flicking out’ over a bin, patting the inverted plate onto tissue, and then replacing with 10 μL of wash media (Hams/F12 with glutamax and 8 mM HEPES, NB: serum free). Then, the wash media was removed in the same way and replaced with 8 μL/well of the serum free media. Plates were then re-incubated for a further 4 hours at 37° C./5% CO2.
(§3) Compounds for testing were solubilized to 10 mM in DMSO and compound addition plates, consisting of ten-point concentration response curves (CRC) in duplicate points (10 μM top concentration, 1/2 log dilution series), were prepared by acoustic dispensing and the compound management group.
(§4) After the 4-hour incubation in serum free media, a 4 μL aliquot of the 3× compound solution containing an EC20 of acetylcholine (10 nM final concentration) was added to the cell plate using a 384 well plate to plate transfer. Then, the plate lid was replaced, and the cells incubated for 5 mins at 37° C./5% CO2. Following this final incubation, all cellular processes were stopped by the addition of 4 μL/well of lysis and blocking buffer and plates were incubated for 30 minutes at RT on an orbital shaker (gentle setting). Then, a final addition of 4 μL/well of antibody detection mix, containing both the Europium-Cryptate (donor) and d2 (acceptor) tagged detection components, was added followed by a further 2-hour incubation at RT, and then the plate was read using a TR-FRET (time resolved fluorescence resonance energy transfer) based protocol.

[2] = molecular target: T2, hM4 receptors (Homo sapiens, UniProt P08173); experiment: Human M4 PAM pERK assay; format: cell-based; settings: CHO cells expressing hM4; EC20 of acetylcholine (10 nM final); TR-FRET
T2 construct: expressed in transfected cells; host or cells: CHO cells
T2 sequence (P08173 1-479): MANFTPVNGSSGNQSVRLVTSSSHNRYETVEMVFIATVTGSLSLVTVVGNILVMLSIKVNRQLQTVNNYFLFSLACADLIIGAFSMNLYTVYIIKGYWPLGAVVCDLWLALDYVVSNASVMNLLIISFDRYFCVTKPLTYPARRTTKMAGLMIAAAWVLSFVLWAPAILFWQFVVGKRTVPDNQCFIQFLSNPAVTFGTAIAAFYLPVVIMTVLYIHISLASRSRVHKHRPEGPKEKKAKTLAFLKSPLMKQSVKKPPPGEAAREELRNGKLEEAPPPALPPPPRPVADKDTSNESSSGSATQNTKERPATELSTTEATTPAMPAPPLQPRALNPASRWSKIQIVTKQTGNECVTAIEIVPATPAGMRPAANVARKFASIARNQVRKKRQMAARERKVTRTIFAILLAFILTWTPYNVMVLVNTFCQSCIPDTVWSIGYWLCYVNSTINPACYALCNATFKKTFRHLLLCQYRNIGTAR
Method: as §1, §2, §3, §4

SMILES	EC50 [1] [nM]	EC50 [2] [nM]
COc1nc(C#N)nc2c1C(C)N(C(=O)CC1CN(c3cc(F)cc(F)c3)C1)C2 (single isomer, unassigned) [Compound I-10, 6-(2-(1-(3,5-Difluorophenyl)azetidin-3-yl)acetyl)-4-methoxy-5-methyl-6,7-dihydro-5H-pyrrolo[3,4-d]pyrimidine-2-carbonitrile]	≥ 2000	≥ 2000
CNc1nc(C)nc2c1CN(C(=O)CC1CN(c3cccnc3)C1)C2 [Compound I-72, 1-(2-Methyl-4-(methylamino)-5,7-dihydro-6H-pyrrolo[3,4-d]pyrimidin-6-yl)-2-(1-(pyridin-3-yl)azetidin-3-yl)ethan-1-one]	≥ 2000	500 to 2000
COc1nc(C#N)nc2c1C(C)N(C(=O)CC1CN(c3ncns3)C1)C2 (single isomer, unassigned) [Compound I-3, 6-(2-(1-(1,2,4-Thiadiazol-5-yl)azetidin-3-yl)acetyl)-4-methoxy-5-methyl-6,7-dihydro-5H-pyrrolo[3,4-d]pyrimidine-2-carbonitrile]	500 to 2000	100 to 500
COc1nc(C#N)nc2c1C(C)N(C(=O)CC1CN(c3cc(F)cc(F)c3)C1)C2 (single isomer, unassigned) [Compound I-9, 6-(2-(1-(3,5-Difluorophenyl)azetidin-3-yl)acetyl)-4-methoxy-5-methyl-6,7-dihydro-5H-pyrrolo[3,4-d]pyrimidine-2-carbonitrile]	≤ 100	≤ 100
Cc1nc2c(c(NC3CC3)n1)CN(C(=O)CC1CN(c3cccnc3)C1)C2 [Compound I-73, 1-(4-(Cyclopropylamino)-2-methyl-5,7-dihydro-6H-pyrrolo[3,4-d]pyrimidin-6-yl)-2-(1-(pyridin-3-yl)azetidin-3-yl)ethan-1-one]	≥ 2000	500 to 2000
COc1nc(C(F)(F)F)nc2c1CN(C(=O)CC1CN(c3cccnc3)C1)C2 [Compound I-78, 1-(4-Methoxy-2-(trifluoromethyl)-5,7-dihydro-6H-pyrrolo[3,4-d]pyrimidin-6-yl)-2-(1-(pyridin-3-yl)azetidin-3-yl)ethan-1-one]	500 to 2000	100 to 500
COc1nc(C#N)nc2c1C(C)N(C(=O)CC1CN(c3cncnc3)C1)C2 (single isomer, unassigned) [Compound I-26, 4-Methoxy-5-methyl-6-(2-(1-(pyrimidin-5-yl)azetidin-3-yl)acetyl)-6,7-dihydro-5H-pyrrolo[3,4-d]pyrimidine-2-carbonitrile]	≥ 2000	500 to 2000
COc1nc(C)nc2c1CN(C(=O)CC1CN(c3cccnc3)C1)C2 [Compound I-41, 1-(4-Methoxy-2-methyl-5,7-dihydro-6H-pyrrolo[3,4-d]pyrimidin-6-yl)-2-(1-(pyridin-3-yl)azetidin-3-yl)ethan-1-one]	500 to 2000	100 to 500
COc1nc(OC(F)F)nc2c1CN(C(=O)CC1CN(c3cccnc3)C1)C2 [Compound I-80, 1-(2-(Difluoromethoxy)-4-methoxy-5,7-dihydro-6H-pyrrolo[3,4-d]pyrimidin-6-yl)-2-(1-(pyridin-3-yl)azetidin-3-yl)ethan-1-one]	≥ 2000	500 to 2000

Other lines, results leading:

EC50 [1] [nM]	EC50 [2] [nM]	SMILES
100 to 500	100 to 500	COc1nc(C#N)nc2c1C(C)N(C(=O)CC1CN(c3cccc(C(F)(F)F)c3)C1)C2 (single isomer, unassigned) [Compound I-16, 4-Methoxy-5-methyl-6-(2-(1-(3-(trifluoromethyl)phenyl)azetidin-3-yl)acetyl)-6,7-dihydro-5H-pyrrolo[3,4-d]pyrimidine-2-carbonitrile]
500 to 2000	500 to 2000	COc1nc(C)nc2c1CN(C(=O)CC1CN(c3ccnc(C(F)(F)F)c3)C1)C2C (racemic) [Compound I-61, 1-(4-Methoxy-2,7-dimethyl-5,7-dihydro-6H-pyrrolo[3,4-d]pyrimidin-6-yl)-2-(1-(2-(trifluoromethyl)pyridin-4-yl)azetidin-3-yl)ethan-1-one]
≥ 2000	≥ 2000	COc1nc(C2COC2)nc2c1CN(C(=O)CC1CN(c3ccnc(C(F)(F)F)c3)C1)C2 [Compound I-77, 1-(4-Methoxy-2-(oxetan-3-yl)-5,7-dihydro-6H-pyrrolo[3,4-d]pyrimidin-6-yl)-2-(1-(2-(trifluoromethyl)pyridin-4-yl)azetidin-3-yl)ethan-1-one]
500 to 2000	≤ 100	COc1nc(C)nc2c1C(C)N(C(=O)CC1CN(c3cncnc3)C1)C2 (single isomer, unassigned) [Compound I-59, 1-(4-Methoxy-2,5-dimethyl-5,7-dihydro-6H-pyrrolo[3,4-d]pyrimidin-6-yl)-2-(1-(pyrimidin-5-yl)azetidin-3-yl)ethan-1-one]
≥ 2000	≥ 2000	COc1cc(N2CC(CC(=O)N3Cc4nc(C#N)nc(OC)c4C3C)C2)ccn1 (single isomer, unassigned) [Compound I-17, 4-Methoxy-6-(2-(1-(2-methoxypyridin-4-yl)azetidin-3-yl)acetyl)-5-methyl-6,7-dihydro-5H-pyrrolo[3,4-d]pyrimidine-2-carbonitrile]
500 to 2000	≤ 100	COc1cc(N2CC(CC(=O)N3Cc4nc(C#N)nc(OC)c4C3C)C2)ccn1 (single isomer, unassigned) [Compound I-18, 4-Methoxy-6-(2-(1-(2-methoxypyridin-4-yl)azetidin-3-yl)acetyl)-5-methyl-6,7-dihydro-5H-pyrrolo[3,4-d]pyrimidine-2-carbonitrile]
100 to 500	500 to 2000	COc1nc(C#N)nc2c1C(C)N(C(=O)CC1C(C)N(c3ccnc(C(F)(F)F)c3)C1C)C2 (centres unmarked) [Compound I-40, 6-(2-(2,4-Dimethyl-1-(2-(trifluoromethyl)pyridin-4-yl)azetidin-3-yl)acetyl)-4-methoxy-5-methyl-6,7-dihydro-5H-pyrrolo[3,4-d]pyrimidine-2-carbonitrile]
